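1) Cells in 96-well plates. 2) Compound, 48 h, 5 concentrations. 3) Linear interpolation between surrounding doses. 4) Unreached endpoint = highest concentration. The concentration for 50% growth inhibition is given as GI50. The concentration for full growth arrest is given as TGI.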
How the values were obtained:
Experiment in all cases: growth of human tumour cells (NCI), 48 h
SR leukemia = tested on: SR leukemia
SF-268 CNS = tested on: SF-268 CNS
HCT-15 colon = tested on: HCT-15 colon
HL-60(TB) leukemia = tested on: HL-60(TB) leukemia
M14 melanoma = tested on: M14 melanoma
EKVX NSCLC = tested on: EKVX NSCLC
UACC-257 melanoma = tested on: UACC-257 melanoma
DU-145 prostate = tested on: DU-145 prostate
RXF 393 renal = tested on: RXF 393 renal
HCC-2998 colon = tested on: HCC-2998 colon
MCF7 breast = tested on: MCF7 breast
MDA-MB-231 breast = tested on: MDA-MB-231 breast
OVCAR-3 ovarian = tested on: OVCAR-3 ovarian
U251 CNS = tested on: U251 CNS
SK-MEL-2 melanoma = tested on: SK-MEL-2 melanoma
COLO 205 colon = tested on: COLO 205 colon
ACHN renal = tested on: ACHN renal
SN12C renal = tested on: SN12C renal
NCI-H23 lung = tested on: NCI-H23 lung
KM12 colon = tested on: KM12 colon
T-47D breast = tested on: T-47D breast
SK-OV-3 ovarian = tested on: SK-OV-3 ovarian
OVCAR-8 ovarian = tested on: OVCAR-8 ovarian
BT-549 breast = tested on: BT-549 breast
HCT-116 colon = tested on: HCT-116 colon
NCI/ADR-RES ovarian = tested on: NCI/ADR-RES ovarian
OVCAR-5 ovarian = tested on: OVCAR-5 ovarian
OVCAR-4 ovarian = tested on: OVCAR-4 ovarian
SF-295 CNS = tested on: SF-295 CNS
UO-31 renal = tested on: UO-31 renal
LOX IMVI melanoma = tested on: LOX IMVI melanoma
SW-620 colon = tested on: SW-620 colon
TK-10 renal = tested on: TK-10 renal
CAKI-1 renal = tested on: CAKI-1 renal
K-562 leukemia = tested on: K-562 leukemia
A549 NSCLC = tested on: A549 NSCLC
NCI-H522 lung = tested on: NCI-H522 lung
NCI-H460 lung = tested on: NCI-H460 lung
SNB-19 CNS = tested on: SNB-19 CNS
IGROV1 ovarian = tested on: IGROV1 ovarian
NCI-H226 lung = tested on: NCI-H226 lung
SK-MEL-5 melanoma = tested on: SK-MEL-5 melanoma
786-0 renal = tested on: 786-0 renal
MDA-MB-435 = tested on: MDA-MB-435
HT29 colon = tested on: HT29 colon
A498 renal = tested on: A498 renal
UACC-62 melanoma = tested on: UACC-62 melanoma
MALME-3M melanoma = tested on: MALME-3M melanoma
MOLT-4 leukemia = tested on: MOLT-4 leukemia
HOP-62 NSCLC = tested on: HOP-62 NSCLC
SK-MEL-28 melanoma = tested on: SK-MEL-28 melanoma

COc1ccc(C2=C(c3cn(C)c4ccccc34)C(=O)OC2)cc1OC
GI50 (SR leukemia): 0.411 µM | TGI (SR leukemia): > 100 µM | GI50 (SF-268 CNS): 16.8 µM | TGI (SF-268 CNS): > 100 µM | GI50 (HCT-15 colon): 0.621 µM | TGI (HCT-15 colon): > 100 µM | GI50 (HL-60(TB) leukemia): 1.42 µM | TGI (HL-60(TB) leukemia): 6.48 µM | GI50 (M14 melanoma): 0.938 µM | TGI (M14 melanoma): > 100 µM | GI50 (EKVX NSCLC): 4.64 µM | TGI (EKVX NSCLC): > 100 µM | GI50 (UACC-257 melanoma): > 100 µM | TGI (UACC-257 melanoma): > 100 µM | GI50 (DU-145 prostate): 3.13 µM | TGI (DU-145 prostate): > 100 µM | GI50 (RXF 393 renal): 1.92 µM | TGI (RXF 393 renal): 6.11 µM | GI50 (HCC-2998 colon): 2.86 µM | TGI (HCC-2998 colon): > 100 µM | GI50 (MCF7 breast): 0.713 µM | TGI (MCF7 breast): > 100 µM | GI50 (MDA-MB-231 breast): 2.42 µM | TGI (MDA-MB-231 breast): > 100 µM | GI50 (OVCAR-3 ovarian): 1.25 µM | TGI (OVCAR-3 ovarian): 5.45 µM | GI50 (U251 CNS): 2.64 µM | TGI (U251 CNS): > 100 µM | GI50 (SK-MEL-2 melanoma): 4.34 µM | TGI (SK-MEL-2 melanoma): > 100 µM | GI50 (COLO 205 colon): 1.5 µM | TGI (COLO 205 colon): 27.9 µM | GI50 (ACHN renal): 7.95 µM | TGI (ACHN renal): > 100 µM | GI50 (SN12C renal): 6.81 µM | TGI (SN12C renal): > 100 µM | GI50 (NCI-H23 lung): 4.04 µM | TGI (NCI-H23 lung): > 100 µM | GI50 (KM12 colon): 1.45 µM | TGI (KM12 colon): > 100 µM | GI50 (T-47D breast): 4.07 µM | TGI (T-47D breast): > 100 µM | GI50 (SK-OV-3 ovarian): 5.6 µM | TGI (SK-OV-3 ovarian): > 100 µM | GI50 (OVCAR-8 ovarian): 4.69 µM | TGI (OVCAR-8 ovarian): > 100 µM | GI50 (BT-549 breast): 2.79 µM | TGI (BT-549 breast): > 100 µM | GI50 (HCT-116 colon): 1.16 µM | TGI (HCT-116 colon): > 100 µM | GI50 (NCI/ADR-RES ovarian): 0.87 µM | TGI (NCI/ADR-RES ovarian): > 100 µM | GI50 (OVCAR-5 ovarian): 5.96 µM | TGI (OVCAR-5 ovarian): > 100 µM | GI50 (OVCAR-4 ovarian): 6.77 µM | TGI (OVCAR-4 ovarian): > 100 µM | GI50 (SF-295 CNS): 2.65 µM | TGI (SF-295 CNS): > 100 µM | GI50 (UO-31 renal): 1.93 µM | TGI (UO-31 renal): > 100 µM | GI50 (LOX IMVI melanoma): 4.54 µM | TGI (LOX IMVI melanoma): > 100 µM | GI50 (SW-620 colon): 0.587 µM | TGI (SW-620 colon): > 100 µM | GI50 (TK-10 renal): > 100 µM | TGI (TK-10 renal): > 100 µM | GI50 (CAKI-1 renal): 0.747 µM | TGI (CAKI-1 renal): > 100 µM | GI50 (K-562 leukemia): 0.441 µM | TGI (K-562 leukemia): > 100 µM | GI50 (A549 NSCLC): 2.67 µM | TGI (A549 NSCLC): > 100 µM | GI50 (NCI-H522 lung): 1.19 µM | TGI (NCI-H522 lung): > 100 µM | GI50 (NCI-H460 lung): 2.21 µM | TGI (NCI-H460 lung): > 100 µM | GI50 (SNB-19 CNS): 4.18 µM | TGI (SNB-19 CNS): > 100 µM | GI50 (IGROV1 ovarian): 1.72 µM | TGI (IGROV1 ovarian): > 100 µM | GI50 (NCI-H226 lung): 3.26 µM | TGI (NCI-H226 lung): > 100 µM | GI50 (SK-MEL-5 melanoma): 3.74 µM | TGI (SK-MEL-5 melanoma): > 100 µM | GI50 (786-0 renal): 6.67 µM | TGI (786-0 renal): > 100 µM | GI50 (MDA-MB-435): 0.265 µM | TGI (MDA-MB-435): 0.801 µM | GI50 (HT29 colon): 0.688 µM | TGI (HT29 colon): > 100 µM | GI50 (A498 renal): 0.374 µM | TGI (A498 renal): 3.5 µM | GI50 (UACC-62 melanoma): 1.28 µM | TGI (UACC-62 melanoma): > 100 µM | GI50 (MALME-3M melanoma): 9.32 µM | TGI (MALME-3M melanoma): > 100 µM | GI50 (MOLT-4 leukemia): 2.8 µM | TGI (MOLT-4 leukemia): > 100 µM | GI50 (HOP-62 NSCLC): 3 µM | TGI (HOP-62 NSCLC): > 100 µM | GI50 (SK-MEL-28 melanoma): 9.87 µM | TGI (SK-MEL-28 melanoma): > 100 µM
